# System: acetyl transferase from Taxus baccata
# Test: Enzymatic acetylation of substrates in the enzyme reactor (substrate specificity)
# Assay type: biochemical
# Conditions: used as in the example in place of 10-DAB; compared with 10-deacetyl baccatin III
# Description: The synthesis in the enzyme reactor is carried out under the following conditions: The solvent used in the process is a 1:4 mixture of chloroform and heptane.
row,Compound,acetylation as substrate of the acetyl transferase
1,CC(=O)O[C@@]12CO[C@@H]1C[C@H](O)[C@@]1(C)C(=O)[C@H](O)C3=C(C)[C@@H](OC(=O)[C@H](O)[C@@H](NC(=O)c4ccccc4)c4ccccc4)C[C@@](O)([C@@H](OC(=O)c4ccccc4)[C@H]21)C3(C)C [10-Deacetyl taxol],significantly weaker as a substrate
2,CC(=O)O[C@H]1C(=O)[C@@]2(C)[C@H]([C@H](OC(=O)c3ccccc3)[C@]3(O)C[C@H](OC(=O)[C@H](O)[C@@H](NC(=O)c4ccccc4)c4ccccc4)C(C)=C1C3(C)C)[C@]1(OC(C)=O)CO[C@@H]1C[C@@H]2O [taxol],not acetylated
3,baccatin III,not acetylated

# — patent US6458568B1, “Method for the production of baccatin-III by enzymatic synthesis” (Institut fuer Bioanalytik, Umwelt-Toxikologie und …, priority 1998, dated 2002)
